Measured values from patent US20230090708A1, “METHODS AND COMPOSITIONS FOR THE TREATMENT OF HEMANGIOMA” (MASSEY VENTURES LIMITED, priority 2020, published 2023).
In brackets after ≈: the same amount, converted by molar mass. Read-outs that look alike come from different tables or passages of the source.

Assays:
[1] = cited from earlier work
[2] = cited from earlier work; for Half life: in vivo; for Half life: short or long acting: in words
brush border ACE = target: T1, brush border ACE (Homo sapiens, UniProt P12821); settings: cited from earlier work
T1 construct: brush border ACE; from tissue
T1 sequence (P12821 30-1306): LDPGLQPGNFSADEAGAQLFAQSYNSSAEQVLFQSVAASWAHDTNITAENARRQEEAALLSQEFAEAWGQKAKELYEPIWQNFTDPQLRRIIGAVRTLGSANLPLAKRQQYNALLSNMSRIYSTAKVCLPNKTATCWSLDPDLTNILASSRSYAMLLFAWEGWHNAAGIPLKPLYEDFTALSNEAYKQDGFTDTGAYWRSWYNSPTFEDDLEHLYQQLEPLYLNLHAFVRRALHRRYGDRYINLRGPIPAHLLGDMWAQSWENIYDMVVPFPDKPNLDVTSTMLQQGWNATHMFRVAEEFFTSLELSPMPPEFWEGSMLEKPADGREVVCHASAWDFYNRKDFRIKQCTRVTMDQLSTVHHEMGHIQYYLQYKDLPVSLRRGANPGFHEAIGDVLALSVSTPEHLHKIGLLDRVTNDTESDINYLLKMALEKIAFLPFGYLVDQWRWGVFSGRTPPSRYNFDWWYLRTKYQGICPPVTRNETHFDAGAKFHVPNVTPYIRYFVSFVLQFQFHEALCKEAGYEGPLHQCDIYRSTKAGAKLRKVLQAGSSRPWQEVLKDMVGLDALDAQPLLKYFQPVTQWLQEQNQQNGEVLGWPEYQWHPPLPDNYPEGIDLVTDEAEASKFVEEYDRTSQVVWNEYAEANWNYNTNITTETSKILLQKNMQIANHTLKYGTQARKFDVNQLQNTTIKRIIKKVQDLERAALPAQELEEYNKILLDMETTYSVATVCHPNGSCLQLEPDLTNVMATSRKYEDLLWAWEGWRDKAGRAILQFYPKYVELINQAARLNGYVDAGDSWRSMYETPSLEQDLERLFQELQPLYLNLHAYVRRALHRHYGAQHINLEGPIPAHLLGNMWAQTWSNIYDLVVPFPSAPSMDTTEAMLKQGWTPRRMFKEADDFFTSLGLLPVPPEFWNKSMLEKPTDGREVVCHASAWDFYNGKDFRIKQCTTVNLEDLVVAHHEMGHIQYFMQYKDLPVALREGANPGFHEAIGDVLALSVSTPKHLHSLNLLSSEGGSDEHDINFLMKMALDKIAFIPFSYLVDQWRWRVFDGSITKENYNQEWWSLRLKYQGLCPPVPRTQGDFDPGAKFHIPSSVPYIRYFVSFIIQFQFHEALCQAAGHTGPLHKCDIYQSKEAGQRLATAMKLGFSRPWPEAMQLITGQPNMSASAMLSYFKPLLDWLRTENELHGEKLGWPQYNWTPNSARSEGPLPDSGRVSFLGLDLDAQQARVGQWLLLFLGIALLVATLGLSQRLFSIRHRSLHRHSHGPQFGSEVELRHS

[3] = tested on: proliferating hemangioma cells; experiment: Experiment 7: different ACEi and beta blockers on one primary cell line, MTT; assay type: cell-based, human; settings: for inhibition of proliferating hemangioma cells: 1 μM and 10 μM; for Results Summary: 72 hours, one cell line; for inhibition at 1 µM / inhibition at 10 µM: Homo sapiens, 72 h, read-out: Inhibition vs. Cells + Adjuvant at 72 Hours
Protocol: (§1) An in vitro cell culture model of infantile hemangioma was developed to assess the impact of renin-angiotensin system inhibitors on cellular proliferation. A primary cell line of proliferating infantile hemangioma cells, including haemangioma stem cells, was derived from a tissue biopsy obtained from patients during the proliferating phase of the disease. The primary cell lines are cultured in 25 cm^2 flasks using standard culture media and conditions. The cultured cells are used to seed 96-well plates with a seed cell concentration of 2500 or 5000 cells per well, with additional culture media (200 μL). All studies are performed in triplicate.
The plates are incubated overnight to allow cell adherence to the wells. The wells are photographed to confirm cell adherence and confluency. The appropriate drug(s) to be examined are subsequently added to the wells. […] The media is aspirated from each well and stored frozen for possible future analyses. Media is added to the wells and an MTT determination is undertaken according to standard protocols.
(§2) From the triplicate incubations of each drug concentration at each time, as well as for all controls, the mean±standard deviation is calculated. The net survival (optical density value) is calculated by subtracting the appropriate blank mean value from each cell culture. From the MTT data, the percentage of survival of cells in the presence of each concentration of drug after each time of culturing is determined.
Briefly, cells were seeded in 96-well plates at concentrations of 2500 cells/well in triplicate for each drug and drug combination. […] All plates were performed in triplicate. Beta blockers used in the study were (±)-propranolol, R-propranolol, S-propranolol, timolol, and betaxalol.

[4] = cited from earlier work; remark: listed apart in the source
[5] = tested on: proliferating hemangioma cells; experiment: Example 5: R- and S-beta blockers alone and with cilazapril, MTT; assay type: cell-based, human
Protocol: An in vitro cell culture model of infantile hemangioma was developed to assess the impact of renin-angiotensin system inhibitors on cellular proliferation. A primary cell line of proliferating infantile hemangioma cells, including haemangioma stem cells, was derived from a tissue biopsy obtained from patients during the proliferating phase of the disease. The primary cell lines are cultured in 25 cm^2 flasks using standard culture media and conditions. The cultured cells are used to seed 96-well plates with a seed cell concentration of 2500 or 5000 cells per well, with additional culture media (200 μL). All studies are performed in triplicate. The plates are incubated overnight to allow cell adherence to the wells. The wells are photographed to confirm cell adherence and confluency. The appropriate drug(s) to be examined are subsequently added to the wells. After 24 hours, one set of plates (experimental and blank) is stopped. The media is aspirated from each well and stored frozen for possible future analyses. Media is added to the wells and an MTT determination is undertaken according to standard protocols. This is repeated at 48 and 72 hours. From the triplicate incubations of each drug concentration at each time, as well as for all controls, the mean±standard deviation is calculated. The net survival (optical density value) is calculated by subtracting the appropriate blank mean value from each cell culture. From the MTT data, the percentage of survival of cells in the presence of each concentration of drug after each time of culturing is determined. The experimental protocol was performed as per Example 1. Briefly, cells were seeded in 96-well plates at concentrations of 2500 cells/well in triplicate for each drug and drug combination. Drug(s) were added to each well 24 hours after seeding and re-dosed every 24 hours. Cell viability was assessed by MTT assay after 24, 48, and 72 hours. All plates were performed in triplicate. […] Timolol and propranolol were used as model beta blockers and cilazapril as a model ACE inhibitor.

[6] = tested on: proliferating hemangioma cell lines (n=9); experiment: Example 6: single agents and combinations on nine primary cell lines, MTT, CompuSyn combination index; assay type: cell-based, human; settings: 1 to 10 μM; 72 hours; n=9
Protocol: as §1
The plates are incubated overnight to allow cell adherence to the wells. The wells are photographed to confirm cell adherence and confluency. The appropriate drug(s) to be examined are subsequently added to the wells. After 24 hours, one set of plates (experimental and blank) is stopped. The media is aspirated from each well and stored frozen for possible future analyses. Media is added to the wells and an MTT determination is undertaken according to standard protocols. This is repeated at 48 and 72 hours.
as §2
A study was undertaken using combinations of ACE inhibitors, beta blockers and angiotensin II type 2 receptor blockers to inhibit proliferating hemangioma cells. […] Patient histories pertaining to each cell line is described in Table 5.
The experimental protocol was performed as per Example 1. Briefly, cells were seeded in 96-well plates at concentrations of 2500 cells/well in triplicate for each drug and drug combination. Drug(s) were added to each well 24 hours after seeding and re-dosed every 24 hours. Cell viability was assessed by MTT assay after 24, 48, and 72 hours. All plates were performed in triplicate. Drugs were assessed alone and in combination, as described in Table 6. Propranolol was used as a model beta blocker, cilazapril as a model ACE inhibitor, and SMM02 (L-159686) as a model AT2Ri. Synergy was measured using the CompuSyn open-source software protocol for quantifying synergism and antagonism that uses the median-effect equation and mass-action laws to generate a combination index (www.compusyn.com). Synergism, additive effects and antagonism are defined as a CI<1, CI=1, and CI>1, respectively.

[7] = Franz-diffusion cell permeation through skin-model membranes; settings: 120 hours
Excerpt: Firstly, a custom-built Franz-diffusion cell (FIG. 34 A) was constructed in-house, consisting of a donor and receiver chamber, and fitted with a water-jacket to enable the temperature to be controlled to mimic physiological conditions. […] This model system was used as a screening tool to increase the success of subsequent permeation studies performed on excised animal skin.
The system was validated by investigating the permeation of a water-soluble fluorescent dye, carboxyfluorescein, which has poor skin penetration properties. […] As a comparison, carboxyfluorescein was encapsulated into deformable liposomes with a phospholipid membrane composition of soy phosphatidylcholine (Phospholipon® 90G) and polysorbate 80 in an 80:20 mol % ratio. […]
The carboxyfluorescein emulgel (2 mL) was placed in the receiver chamber of the Franz-diffusion cell fitted with a Strat-M® membrane, and permeation of fluorescein across the membrane was monitored over time and quantified by fluoresce spectroscopy. […]
The permeation of propranolol through skin-model membranes in vitro was assessed. A 2-mL volume of the appropriate vehicle (cream vs. emulsion gel) was placed in the donor chamber of the Franz-diffusion cell, and the concentration of propranolol in the receiver chamber was determined by UV-Vis spectroscopy at frequent time intervals over 60 hours.

[8] = cited from earlier work; remark: listed apart in the source
rabbit lung ACE = target: T2, rabbit lung ACE (Oryctolagus cuniculus, UniProt P12822); settings: vs rabbit lung ACE, cited from earlier work
T2 construct: rabbit lung ACE; from tissue; host or cells: rabbit lung
T2 sequence (P12822 34-1310): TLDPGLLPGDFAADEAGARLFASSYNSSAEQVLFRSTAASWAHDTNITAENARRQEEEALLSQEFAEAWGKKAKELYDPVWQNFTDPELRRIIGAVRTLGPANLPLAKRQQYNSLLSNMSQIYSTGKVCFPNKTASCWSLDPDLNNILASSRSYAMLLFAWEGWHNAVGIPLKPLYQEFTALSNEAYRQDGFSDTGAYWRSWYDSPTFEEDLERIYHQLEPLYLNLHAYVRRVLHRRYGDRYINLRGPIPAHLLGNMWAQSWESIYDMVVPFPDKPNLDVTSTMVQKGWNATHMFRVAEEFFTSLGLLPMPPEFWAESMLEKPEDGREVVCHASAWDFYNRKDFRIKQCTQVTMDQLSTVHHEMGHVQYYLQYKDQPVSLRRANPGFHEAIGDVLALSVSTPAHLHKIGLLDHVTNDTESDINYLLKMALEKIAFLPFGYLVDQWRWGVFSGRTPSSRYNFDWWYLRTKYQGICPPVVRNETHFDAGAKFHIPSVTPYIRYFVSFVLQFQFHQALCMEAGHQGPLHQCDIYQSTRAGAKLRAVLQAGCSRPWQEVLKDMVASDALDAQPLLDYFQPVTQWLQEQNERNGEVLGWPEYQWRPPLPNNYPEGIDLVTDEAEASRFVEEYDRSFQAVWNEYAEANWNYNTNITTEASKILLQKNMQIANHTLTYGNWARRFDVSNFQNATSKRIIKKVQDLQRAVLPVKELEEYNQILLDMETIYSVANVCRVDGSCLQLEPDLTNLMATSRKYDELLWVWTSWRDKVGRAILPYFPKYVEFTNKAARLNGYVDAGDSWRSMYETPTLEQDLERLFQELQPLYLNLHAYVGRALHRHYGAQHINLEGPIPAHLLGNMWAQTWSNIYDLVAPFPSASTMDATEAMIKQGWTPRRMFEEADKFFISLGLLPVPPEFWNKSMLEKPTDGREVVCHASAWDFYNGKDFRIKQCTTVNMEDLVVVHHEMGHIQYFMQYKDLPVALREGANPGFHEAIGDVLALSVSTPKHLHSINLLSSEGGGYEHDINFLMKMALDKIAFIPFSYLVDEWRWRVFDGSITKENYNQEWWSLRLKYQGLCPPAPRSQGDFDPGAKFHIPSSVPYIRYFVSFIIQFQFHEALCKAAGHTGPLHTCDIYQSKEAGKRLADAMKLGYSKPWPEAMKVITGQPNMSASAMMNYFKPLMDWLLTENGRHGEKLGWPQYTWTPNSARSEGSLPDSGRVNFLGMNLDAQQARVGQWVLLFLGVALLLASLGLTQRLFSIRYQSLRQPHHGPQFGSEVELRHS

superficial IH = settings: cited from earlier work
[9] = tested on: flat or minimally raised IH lesions; settings: cited from earlier work
proliferating IH [10] = settings: topical 1% ointments; cited from earlier work
IH = settings: oral; 30 patients with IH; cited from earlier work
proliferating IH [11] = settings: cited from earlier work

CCOC(=O)[C@H](CCc1ccccc1)N[C@@H](C)C(=O)N1[C@H](C(=O)O)C[C@@H]2CCC[C@@H]21 [Ramipril]
pKa [1]: 3.75
pKa ([1]; second value): 5.2
Half life [2]: 2 to 4 h (Ramipril)
Half life: short or long acting [2]: Long acting
Complete ACE inhibition lasting (brush border ACE; after single 10 μM dose): inhibition lasting 15 days
IC50 (brush border ACE; vs brush border ACE): 5 nM
inhibition of proliferating hemangioma cells [3]: good and similar level of inhibition
Results Summary [3]: Responder
inhibition at 1 µM ([3]; 1 μM): < 0%
inhibition at 10 µM ([3]; 10 μM): 68.1%
Solubility [4]: 3.5 mg/L (≈ 8.4 µM)

CC(C)NC[C@@H](O)COc1cccc2ccccc12 [R(+) Propranolol, R-propranolol]
individual isomers compared with the racemic mixture ([5]; alone): as effective alone as the racemic mixture
attenuating hemangioma cell proliferation, propranolol vs timolol enantiomers ([5]; particularly at 1-5 μM): superior to R- and S-timolol
dose-response across all cell lines [6]: typical dose-response
Estimated Optimal Dosage Range [3]: 1 to 10 µM
Inhibition vs. Cells + Adjuvant at 72 Hours ([3]; 1 μM): 1 μM - No - 1.59%
Inhibition vs. Cells + Adjuvant at 72 Hours ([3]; 10 μM): 10 μM - Response - 50.35%
Results Summary [3]: Responder

carboxyfluorescein
permeation of carboxyfluorescein through the skin-model membrane [7]: No permeation
log P [8]: 2.9

CCOC(=O)[C@H](CCc1ccccc1)N[C@H]1CCc2ccccc2N(CC(=O)O)C1=O [Benazepril]
pKa [1]: 3.5
pKa ([1]; second value): 5.4
IC50 (rabbit lung ACE): 425 nM
Half life: short or long acting [2]: Long acting
Solubility ([4]; pH 7): 1.76 mg/L (pH 7)

Lisinopril
pKa [1]: 3.2
pKa ([1]; second value): 10.2
IC50 (rabbit lung ACE; unit inferred): 3.3 nM
Half life [2]: 12.6 h
Half life: short or long acting [2]: Long acting
Estimated Optimal Dosage Range [3]: 1 to 10 µM
Inhibition vs. Cells + Adjuvant at 72 Hours ([3]; 1 μM): 1 μM - <0%
inhibition of proliferating hemangioma cells [3]: no effect
Inhibition vs. Cells + Adjuvant at 72 Hours ([3]; 10 μM): 10 μM -1.67%
Results Summary [3]: Non-
Log P ([8]; Table 1): −1.01
log P [8]: −1.01
Solubility [4]: 97000 mg/L

CC(C)Cn1cnc2c(N)nc3ccccc3c21 [imiquimod, Imiquimod]
time within which all cases are improved (superficial IH; 5% cream): ≤ 4 months
side effects (superficial IH; topical): severe local inflammatory reactions leading to disfiguring scars

CCC(=O)O[C@]1(C(=O)CCl)[C@@H](C)C[C@H]2[C@@H]3CCC4=CC(=O)C=C[C@]4(C)[C@@]3(F)[C@@H](O)C[C@@]21C [clobetasol propionate]
good response ([9]; topical 0.05%, 4 to 21 weeks): 35%
no response ([9]; topical 0.05%, 4 to 21 weeks): 27%
partial response ([9]; topical 0.05%, 4 to 21 weeks): 38%
adverse effects ([9]; topical ultrapotent corticosteroid): localised atrophy, hypopigmentation, hypertrichosis and infection

O=C(O)[C@H](CCc1ccccc1)N[C@H]1CCCN2CCC[C@@H](C(=O)O)N2C1=O [cilazaprilat]
IC50 (rabbit lung ACE): 1.93 nM
Half life [2]: 9 h (cilazaprilat)

CC(C)NCC(O)COc1cccc2ccccc12 (racemic) [(±) Propranolol, Propranolol]
good response (proliferating IH [10]): 57-59%
good to modest response rates (proliferating IH [10]): 75-90%
modest response (proliferating IH [10]): 26-33%
no response (proliferating IH [10]): 10-15%
clinical improvement versus captopril (IH): significantly better and faster
patients treated showing an improvement (proliferating IH [11]; oral low dose, within 5 weeks): approximately 88%
patients successfully treated (proliferating IH [11]; oral, overall): approximately 60%
Results Summary [3]: Responder
inhibition at 1 µM ([3]; 1 μM): < 0%
inhibition at 10 µM ([3]; 10 μM): 47.5%
